One experiment relates to CHIKV replicon. As to the kind of experiment: microbe, parasite or virus in culture. It counts as cell-based, Chikungunya virus (CHIKV).

Each structure is given as a SMILES string.

`CCCCNC(=O)NS(=O)(=O)c1ccc(N)cc1` [1-Butyl-3-sulfanilylurea [carbutamide]]: in the experiment on CHIKV replicon, the “CHIKV replicon % left” value amounted to 67.5%. In the experiment on SFV-Rluc, the “SFV replication % left (surviving fraction, remaining percentage of SFV replication)” value is recorded as 83.9%.
On to `COc1ccccc1-c1cc(=O)c2ccc3ccccc3c2o1` [2'-Methoxy-a-naphthoflavone], for which, in the experiment on CHIKV replicon, the “CHIKV replicon % left” value amounted to 81.0%. Further, the “SFV replication % left (surviving fraction, remaining percentage of SFV replication)” value in the experiment on SFV-Rluc is on record as 45.8%.
Taken in the same sequence, the figures for `O=C(O)c1cccc(O)c1O` [2,3-Dihydroxybenzoic acid] were 105.1% and 93.1%.
Taken in the same sequence, the figures for `O=C(O)c1ccc(O)cc1O` [2,4-Dihydroxylbenzoic acid] were 29.5% and 32.1%.
For the molecule `O=C(O)c1cc(O)ccc1O` [2,5-Dihydroxybenzoic acid], the “CHIKV replicon % left” value in the experiment with CHIKV replicon turned out to be 83.7%. In addition, in the experiment with SFV-Rluc, the “SFV replication % left (surviving fraction, remaining percentage of SFV replication)” value is listed as 127.8%.
Taken in the same sequence, the figures for `Cc1ccc(C)c(O)c1` [2,5-Dimethylphenol] were 100.5% and 84.6%.
In the same order, the values of `O=C(O)c1c(O)cccc1O` [2,6-Dihydroxybenzoic acid] are 62.3% and 118.7%.
In the same order, the values of `CC(C(=O)O)c1cccc(C(=O)O)c1` (stereo not drawn) [2-(3-Carboxyphenyl)propionic acid] are 94.3% and 105.7%.
Turning to `Nc1ccc(Cl)cc1C(=O)c1ccccc1F` [2-Amino-5-chloro-2'-fluorobenzophenone], the “CHIKV replicon % left” value with CHIKV replicon was 82.2%. For the same molecule, the “SFV replication % left (surviving fraction, remaining percentage of SFV replication)” value with SFV-Rluc was determined as 167.4%.
In the same order, the values of `CC(=O)c1ccccc1O` [2-Hydroxyacetophenone] are 99.4% and 129.7%.
Turning to `O=C(O)Cc1ccccc1O` [2-Hydroxyphenylacetic acid], the “CHIKV replicon % left” value with CHIKV replicon is on record as 14.3%. The “SFV replication % left (surviving fraction, remaining percentage of SFV replication)” value in the experiment on SFV-Rluc is on record as 7.3%.
Turning to `COc1cc(C(=O)O)cc(OC)c1OC` [3,4,5-Trimethoxybenzoic acid], the “CHIKV replicon % left” value in the experiment with CHIKV replicon was found to be 28.8%. Besides, the “SFV replication % left (surviving fraction, remaining percentage of SFV replication)” value in the experiment with SFV-Rluc is 34.0%.
In the same order, the values of `O=C(O)c1ccc(O)c(O)c1` [3,4-Dihydroxybenzoic acid] are 101.6% and 124.5%.
Taken in the same sequence, the figures for `O=C(O)c1cc(O)cc(O)c1` [3,5-Dihydroxybenzoic acid] were 87.8% and 6.9%.
For the molecule `O=c1oc2cc(O)ccc2cc1-c1nc2ccccc2o1` [3-(2-Benzoxazolyl)umbelliferone], in the experiment on CHIKV replicon, the “CHIKV replicon % left” value came to 61.8%. Moreover, the “SFV replication % left (surviving fraction, remaining percentage of SFV replication)” value in the experiment with SFV-Rluc amounted to 21.0%.
Taken in the same sequence, the figures for `CC(=O)CC(c1ccccc1)c1c(O)c2ccccc2oc1=O` (stereo not drawn) [3-(a-Acetonylbenzyl)-4-hydroxycoumarin] were 57.2% and 79.5%.
Taken in the same sequence, the figures for `O=C(c1ccccc1)c1cc2c(ccc3ccccc32)oc1=O` [3-Benzoylbenzo(F)coumarin] were 68.0% and 39.9%.
Turning to `CC(=O)c1cccc(O)c1` [3-Hydroxyacetophenone], the “CHIKV replicon % left” value with CHIKV replicon turned out to be 97.4%. In addition, the “SFV replication % left (surviving fraction, remaining percentage of SFV replication)” value with SFV-Rluc was 125.8%.
In the same order, the values of `O=C(O)Cc1cccc(O)c1` [3-hydroxyphenylacetic acid] are 54.1% and 110.8%.
As to `CN1C(=O)CN=C(c2ccc(Cl)cc2)c2cc(Cl)ccc21` [4'-Chlorodiazepam], in the experiment on CHIKV replicon, the “CHIKV replicon % left” value was found to be 105.5%. In the experiment on SFV-Rluc, the “SFV replication % left (surviving fraction, remaining percentage of SFV replication)” value was determined as 64.0%.
As to `Cc1c(N)c(=O)n(-c2ccccc2)n1C` [4-Aminoantipyrine [ampyrone]], the “CHIKV replicon % left” value with CHIKV replicon came to 89.2%. In addition, in the experiment with SFV-Rluc, the “SFV replication % left (surviving fraction, remaining percentage of SFV replication)” value amounted to 51.6%.
In the same order, the values of `O=c1cc(O)c2ccccc2o1` [4-Hydroxycoumarin] are 95.4% and 100.2%.
In the same order, the values of `O=C(O)Cc1ccc(O)cc1` [4-Hydroxyphenylacetic acid] are 87.2% and 103.6%.
Taken in the same sequence, the figures for `Cc1ccc(O)c(O)c1` [4-Methyl pyrocatechol] were 98.8% and 111.1%.
Turning to `Cc1cc(=O)oc2cc(O)ccc12` [4-Methylumbelliferone], in the experiment with CHIKV replicon, the “CHIKV replicon % left” value came out at 105.6%. The “SFV replication % left (surviving fraction, remaining percentage of SFV replication)” value in the experiment on SFV-Rluc is on record as 90.9%.
In the same order, the values of `C[C@@]12CCC[C@H]1[C@@H]1CC[C@H]3CCCC[C@]3(C)[C@H]1CC2` [4-a-Androstane] are 85.5% and 53.0%.
In the same order, the values of `Cc1cc(=O)oc2cc(O)cc(O)c12` [5,7-Dihydroxy-4-methylcoumarin] are 78.1% and 66.7%.
Regarding `Cc1cc(=O)oc2cc(O)c(O)cc12` [6,7-Dihydroxy-4-methylcoumarin], the “CHIKV replicon % left” value in the experiment with CHIKV replicon turned out to be 95.4%. Also, in the experiment with SFV-Rluc, the “SFV replication % left (surviving fraction, remaining percentage of SFV replication)” value stood at 131.1%.
Turning to `O=C(O)c1cc2cc(Br)cc(Br)c2oc1=O` [6,8-Dibromocoumarin carboxylic acid], in the experiment on CHIKV replicon, the “CHIKV replicon % left” value was 100.1%. In addition, the “SFV replication % left (surviving fraction, remaining percentage of SFV replication)” value in the experiment with SFV-Rluc was found to be 67.4%.
In the same order, the values of `COc1ccc2oc(=O)cc(C)c2c1` [6-Methoxy-4-methylcoumarin] are 85.4% and 66.6%.
For `Cc1ccc2oc(=O)ccc2c1` [6-Methylcoumarin], the “CHIKV replicon % left” value in the experiment on CHIKV replicon was found to be 106.5%. The “SFV replication % left (surviving fraction, remaining percentage of SFV replication)” value in the experiment with SFV-Rluc was 83.6%.
In the same order, the values of `CCCc1cc(=O)[nH]c(=S)[nH]1` [6-Propyl-2-thiouracil] are 100.5% and 81.0%.
Turning to `Cn1c(=O)c2c(ncn2CC(O)CO)n(C)c1=O` (stereo not drawn) [7-(2,3-Dihydroxypropyl)theophylline], the “CHIKV replicon % left” value in the experiment on CHIKV replicon is on record as 54.3%. Besides, the “SFV replication % left (surviving fraction, remaining percentage of SFV replication)” value in the experiment with SFV-Rluc turned out to be 100.1%.
In the same order, the values of `CC(O)Cn1cnc2c1c(=O)n(C)c(=O)n2C` (stereo not drawn) [7-(β-Hydroxypropyl)theophylline] are 70.9% and 125.5%.
Taken in the same sequence, the figures for `COc1ccc2c(C)cc(=O)oc2c1` [7-Methoxy-4-methylcoumarin] were 100.6% and 72.2%.
As to `C#C[C@]1(O)CC[C@H]2[C@@H]3CCc4cc(O)ccc4[C@H]3CC[C@@]21C` [17 -a-ethynylestradiol], in the experiment with CHIKV replicon, the “CHIKV replicon % left” value came out at 59.8%. In the experiment with SFV-Rluc, the “SFV replication % left (surviving fraction, remaining percentage of SFV replication)” value is listed as 11.7%.
Taken in the same sequence, the figures for `Oc1cc(O)c2c(c1)O[C@H](c1ccc(O)c(O)c1)[C@@H](O)C2` [(+)-Catechin] were 96.5% and 64.5%.
In the same order, the values of `O=C1c2c(O)cc(O)cc2O[C@H](c2ccc(O)c(O)c2)[C@H]1O` [(+)-Taxifolin] are 105.4% and 93.7%.
Consider `Cc1c(C)c2c(c(C)c1OC(=O)CCC(=O)O)CC[C@@](C)(CCC[C@H](C)CCC[C@H](C)CCCC(C)C)O2` [(+)-a-Tocopherol acid succinate], for which the “CHIKV replicon % left” value with CHIKV replicon is listed as 62.2%. In the experiment with SFV-Rluc, the “SFV replication % left (surviving fraction, remaining percentage of SFV replication)” value is on record as 75.3%.
Taken in the same sequence, the figures for `Oc1cc(O)c2c(c1)O[C@H](c1ccc(O)c(O)c1)[C@H](O)C2` [(-)-Epicatechin] were 79.6% and 97.1%.
In the same order, the values of `O=C(O[C@@H]1Cc2c(O)cc(O)cc2O[C@@H]1c1cc(O)c(O)c(O)c1)c1cc(O)c(O)c(O)c1` [(-)-Epigallocatechin gallate] are 90.4% and 155.3%.
Taken in the same sequence, the figures for `Oc1cc(O)c2c(c1)O[C@H](c1cc(O)c(O)c(O)c1)[C@H](O)C2` [(-)-Epigallocatechin] were 89.9% and 101.9%.
`O=C(O)[C@]1(O)C[C@@H](O)[C@@H](O)[C@H](O)C1` [(-)-Quinic acid]: the “CHIKV replicon % left” value in the experiment with CHIKV replicon is reported as 106.9%. The “SFV replication % left (surviving fraction, remaining percentage of SFV replication)” value in the experiment with SFV-Rluc was determined as 98.2%.
In the same order, the values of `COc1ccc(-c2cc(=O)c3c(O)cc(O)cc3o2)cc1` [Acacetin] are 103.3% and 78.1%.
Taken in the same sequence, the figures for `CC(=O)Nc1ccc(O)cc1` [Acetaminophen [paracetamol]] were 85.2% and 63.5%.
Turning to `CC(=O)Nc1ccccc1` [Acetanilide], the “CHIKV replicon % left” value with CHIKV replicon came to 92.2%. For the same molecule, the “SFV replication % left (surviving fraction, remaining percentage of SFV replication)” value in the experiment with SFV-Rluc amounted to 57.3%.
In the same order, the values of `CC(=O)Nc1nnc(S(N)(=O)=O)s1` [Acetazolamide] are 102.2% and 71.3%.
Taken in the same sequence, the figures for `O=C1NC2NC(=O)NC2N1` (stereo not drawn) [Acetyleneurea [acetylene carbamide]] were 105.4% and 55.2%.

Values taken from paper PMC3242765, “Inhibitors of Alphavirus Entry and Replication Identified with a Stable Chikungunya Replicon Cell Line and Virus-Based Assays” (PLoS ONE, 2011).
